We go through 31 molecules from patent US20170073337A1, “DIHYDROTHIAZINE AND DIHYDROOXAZINE DERIVATIVES HAVING BACE1 INHIBITORY ACTIVITY” (Shionogi & Co., Ltd., priority 2014, published 2017).

SMILES strings stand for the structures.

For data set [1], the target named is T1, CYP2D6 (Homo sapiens, UniProt P10635).
T1 construct: The commercially available pooled human liver microsomes are used as an enzyme resource; from tissue; host or cells: pooled human liver microsomes
The data set is described as follows: CYP inhibition test (CYP2D6). The class given is in vitro ADME. Conditions: pooled human liver microsomes; dextromethorphan O-demethylation. A digest of the protocol: (§1)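 Pooled human liver microsomes (0.2 mg protein/mL) with compound at 1, 5, 10 and 20 μmol/L and NADPH, at 37 °C. Marker substrates: dextromethorphan 5 μmol/L (2D6), terfenadine 1 μmol/L (3A4), S-mephenytoin 50 μmol/L (2C19), tolbutamide 100 μmol/L (2C9). Metabolites were measured by LC/MS/MS, and IC50 was derived by logistic fit of remaining activity against the DMSO control.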

Data set [2] concerns the target T2, P-gp (MDR1 expressing LLC-PK1 cells) (Homo sapiens, UniProt P08183).
T2 construct: host or cells: LLC-PK1
Description: P-gp substrate test. The class given is in vitro ADME. Particulars: net flux = Efflux Ratio in MDR1 expressing cells / Efflux Ratio in parent LLC-PK1 cells. Here is the method:
• 1. Cell line: • a. MDR/LLC-PK1 (Becton Dickinson) • b. LLC-PK1 (Becton Dickinson) • 2. Reference substrates: • a Digoxin (2 μM)
1. […] After incubation for designed time at 37° C., an aliquot (50 μL) of transport buffer in the donor and receiver side were collected. Assay was performed by duplicate or triplicate. 3. Reference substrate and the present invention in the aliquot was quantified by LC/MS/MS.
Pc(cm/sec)−Permeated amount (pmol)/area of cell membrane (cm2)/initial concentration (nM)/incubation time (sec)
The efflux ratio was calculated using the following equation:
Efflux Ratio=Basolateral-to-Apical Pe/Apical-to-Basolateral Pe
The net flux was calculated using the following equation
Net flux=Efflux Ratio in MDK1 expressing cells/Efflux Ratio in parent cells

Data set [3] addresses T3, CYP2C9 (Homo sapiens, UniProt P11712).
T3 construct: The commercially available pooled human liver microsomes are used as an enzyme resource; from tissue; host or cells: pooled human liver microsomes
The data set is described as follows: CYP inhibition test (CYP2C9). Type of data set: in vitro ADME. Conditions: pooled human liver microsomes; tolbutamide methyl-hydroxylation. An outline of the steps: as §1

Data set [4] in a line: Pharmacokinetic study (oral absorption). The class given is in vivo. Conditions: bioavailability from AUCs of oral and intravenous administration; mouse or rat. Here is the method:
(1l) Animal: mouse or rat (2) Breeding conditions: mouse or rat was allowed free access to the tap water and the solid food. (3) Dose and grouping: orally or intravenously administered at a predetermined dose: grouping was as follows (Dose depends on the compound) Oral administration: 1 to 30 mg/kg (n=2 to 3) Intravenous administration: 0.5 to 10 mg/kg (n=2 to 3) (4) Dosing formulation: for oral administration, in a solution or a suspension state; for intravenous administration, in a solubilized state (5) Dosing method: in oral administration, forcedly administer using a syringe attached a flexible feeding tube; in intravenous administration, administer from caudal vein using a syringe attached with a needle. (6) Evaluation items: blood was collected at the scheduled time, and the plasma concentration of the compound of the present invention was measured by LC/MS/MS (7) Statistical analysis: regarding the transition of the plasma concentration of the compound of the present invention, the area under the plasma concentration-time curve (AUC) was calculated by non-linear least squares program WinNonlin (Registered trademark), and the bioavailability (BA) of the compound of the present invention was calculated from the AUCs of the oral administration group and intravenous administration group

T2 sequence (P08183 whole entry): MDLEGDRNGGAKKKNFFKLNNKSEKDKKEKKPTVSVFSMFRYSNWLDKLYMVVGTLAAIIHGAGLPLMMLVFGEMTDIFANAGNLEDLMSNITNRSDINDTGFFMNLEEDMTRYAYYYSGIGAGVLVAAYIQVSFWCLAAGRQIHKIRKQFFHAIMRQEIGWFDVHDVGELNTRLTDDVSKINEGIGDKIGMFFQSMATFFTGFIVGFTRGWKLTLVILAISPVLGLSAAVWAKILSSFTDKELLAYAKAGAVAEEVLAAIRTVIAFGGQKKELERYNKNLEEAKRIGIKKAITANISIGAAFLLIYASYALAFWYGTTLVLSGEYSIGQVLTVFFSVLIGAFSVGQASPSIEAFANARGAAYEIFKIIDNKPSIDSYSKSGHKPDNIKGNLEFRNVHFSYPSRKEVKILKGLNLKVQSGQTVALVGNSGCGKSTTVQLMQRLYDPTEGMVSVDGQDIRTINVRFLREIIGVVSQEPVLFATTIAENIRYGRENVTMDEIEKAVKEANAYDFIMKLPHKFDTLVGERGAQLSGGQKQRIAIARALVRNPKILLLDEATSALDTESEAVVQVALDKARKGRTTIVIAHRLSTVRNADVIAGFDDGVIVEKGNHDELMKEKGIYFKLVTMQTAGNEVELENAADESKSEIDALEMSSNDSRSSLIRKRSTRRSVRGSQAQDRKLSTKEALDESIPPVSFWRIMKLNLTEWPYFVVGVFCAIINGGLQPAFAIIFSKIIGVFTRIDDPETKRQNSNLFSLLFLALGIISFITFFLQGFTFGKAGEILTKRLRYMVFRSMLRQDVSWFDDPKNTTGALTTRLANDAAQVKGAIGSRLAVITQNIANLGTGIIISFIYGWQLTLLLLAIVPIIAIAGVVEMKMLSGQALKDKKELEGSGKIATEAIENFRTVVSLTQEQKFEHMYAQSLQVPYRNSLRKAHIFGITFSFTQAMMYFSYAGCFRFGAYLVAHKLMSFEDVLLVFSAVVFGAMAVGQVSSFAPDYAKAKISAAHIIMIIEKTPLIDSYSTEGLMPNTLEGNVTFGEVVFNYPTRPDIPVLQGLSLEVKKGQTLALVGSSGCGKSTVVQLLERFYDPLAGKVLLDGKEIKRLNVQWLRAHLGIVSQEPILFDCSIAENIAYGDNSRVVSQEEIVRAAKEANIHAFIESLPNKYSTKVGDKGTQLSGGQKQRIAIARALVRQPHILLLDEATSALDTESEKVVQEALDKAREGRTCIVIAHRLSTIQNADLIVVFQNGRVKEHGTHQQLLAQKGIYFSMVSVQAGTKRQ
T1 sequence (P10635 whole entry): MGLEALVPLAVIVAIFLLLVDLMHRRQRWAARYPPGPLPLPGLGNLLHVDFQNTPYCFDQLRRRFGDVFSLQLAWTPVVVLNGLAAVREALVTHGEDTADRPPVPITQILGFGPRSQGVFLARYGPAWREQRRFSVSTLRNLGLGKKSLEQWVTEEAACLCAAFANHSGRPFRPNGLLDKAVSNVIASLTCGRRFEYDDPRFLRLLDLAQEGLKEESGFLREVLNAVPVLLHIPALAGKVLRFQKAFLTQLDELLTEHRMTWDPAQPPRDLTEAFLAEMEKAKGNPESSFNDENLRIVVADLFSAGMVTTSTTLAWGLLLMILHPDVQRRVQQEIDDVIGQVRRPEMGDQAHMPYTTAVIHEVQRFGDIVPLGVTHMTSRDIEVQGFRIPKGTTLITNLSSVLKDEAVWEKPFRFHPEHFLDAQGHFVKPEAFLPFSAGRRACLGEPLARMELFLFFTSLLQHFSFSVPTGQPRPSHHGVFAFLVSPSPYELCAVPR
T3 sequence (P11712 whole entry): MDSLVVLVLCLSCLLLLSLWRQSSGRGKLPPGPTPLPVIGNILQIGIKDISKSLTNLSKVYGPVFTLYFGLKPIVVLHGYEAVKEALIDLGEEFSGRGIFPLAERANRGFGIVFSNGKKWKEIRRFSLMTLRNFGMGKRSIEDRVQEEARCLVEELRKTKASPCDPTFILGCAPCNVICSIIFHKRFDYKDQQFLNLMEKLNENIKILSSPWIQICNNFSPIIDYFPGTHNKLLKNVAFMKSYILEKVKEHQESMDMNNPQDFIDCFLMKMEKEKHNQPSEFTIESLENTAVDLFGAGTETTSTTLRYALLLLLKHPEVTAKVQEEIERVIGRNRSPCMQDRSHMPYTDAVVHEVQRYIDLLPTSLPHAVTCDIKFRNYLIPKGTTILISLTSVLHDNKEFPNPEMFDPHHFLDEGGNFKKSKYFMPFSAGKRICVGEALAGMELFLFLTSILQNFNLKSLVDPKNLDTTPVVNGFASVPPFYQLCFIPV

In the case of `C[C@H]1SC(N)=N[C@](C)(c2cc(NC(=O)c3ncc(C#N)cc3Cl)ccc2F)[C@H]1F` [Compound I-64], the IC50 in data set [1] was no less than 20 µM. In addition, in data set [2], the “ER ratio (Cell: MDR1/LLC-PK1)” value is 3.2.
For `CO[C@H]1[C@@H](CF)OC(N)=N[C@]1(C)c1cc(NC(=O)c2cnc(OCF)cn2)ccc1F` [Compound I-24], the IC50 is no less than 20 µM in data set [3] and no less than 10 µM in data set [1]. The same molecule came in with a BA_% in data set [4] of 44%.
On to `CC(F)(F)[C@H]1OC(N)=N[C@](C)(c2cc(NC(=O)c3cnc(OCC(F)F)cn3)ccc2F)[C@H]1F` [Compound I-77], for which the IC50 in data set [3] is no less than 10 µM. In addition, in data set [2], the “ER ratio (Cell: MDR1/LLC-PK1)” value worked out at 1.2.
On to `CO[C@H]1[C@@H](C)SC(N)=N[C@]1(C)c1cc(NC(=O)c2cnc(OCF)cn2)ccc1F` [Compound I-87], for which the IC50 in data set [3] and in data set [1] was no less than 20 µM in each case. The “ER ratio (Cell: MDR1/LLC-PK1)” value in data set [2] is on record as 3.4.
With `C[C@H]1SC(N)=N[C@](C)(c2cccc(NC(=O)c3cnc(OCF)cn3)c2)[C@H]1F` [Compound I-104], the IC50 is no less than 10 µM in data set [3] and no less than 20 µM in data set [1]. In addition, the “ER ratio (Cell: MDR1/LLC-PK1)” value in data set [2] is given as 1.4.
`C[C@]1(c2cc(NC(=O)c3ccc(C#N)cn3)ccc2F)N=C(N)SCC12CC(F)(F)C2` [Compound I-59] returned an IC50 in data set [3] of no less than 20 µM. The “ER ratio (Cell: MDR1/LLC-PK1)” value in data set [2] is recorded as 1.2.
For `C[C@]1(c2cc(NC(=O)c3cnc(OCF)cn3)ccc2F)N=C(N)OCC12CC(F)(F)C2` [Compound I-44], the figures for the IC50 in data set [3] and in data set [1] were no less than 20 µM and no less than 10 µM, respectively. For the same molecule, the “ER ratio (Cell: MDR1/LLC-PK1)” value in data set [2] amounted to 4.6.
In the case of `COc1cnc(C(=O)Nc2cccc([C@@]3(C)N=C(N)S[C@H](C)[C@@H]3F)c2)cn1` [Compound I-103], the IC50 in data set [3] was no less than 10 µM; in data set [1], no less than 20 µM. In addition, the “ER ratio (Cell: MDR1/LLC-PK1)” value in data set [2] is reported as 1.4.
For `COc1cnc(C(=O)Nc2ccc(F)c([C@@]3(C)N=C(N)O[C@H]([C@H](C)F)[C@@H]3F)c2)cn1` [Compound I-17], the IC50 in data set [3] is no less than 20 µM. Also, the “ER ratio (Cell: MDR1/LLC-PK1)” value in data set [2] was 0.73.
`COc1cnc(C(=O)Nc2ccc(F)c([C@@]3(C)N=C(N)O[C@H](C(F)F)[C@@H]3C)c2)cn1` [Compound I-86]: the IC50 in data set [3] was no less than 20 µM. For the same molecule, the “ER ratio (Cell: MDR1/LLC-PK1)” value in data set [2] was determined as 1.5.
`C[C@]1(c2cc(NC(=O)c3ccc(C#N)cn3)ccc2F)N=C(N)O[C@H](C2(F)CC2)[C@@H]1F` [Compound I-96]: the IC50 in data set [3] is no less than 10 µM; in data set [1], no less than 20 µM. For the same molecule, in data set [2], the “ER ratio (Cell: MDR1/LLC-PK1)” value is given as 2.0.
Consider `C[C@H]1SC(N)=N[C@](C)(c2cccc(NC(=O)c3cnc(C(F)F)cn3)c2)[C@H]1F` [Compound I-106], for which the IC50 in data set [3] and in data set [1] was no less than 20 µM throughout. Further, the “ER ratio (Cell: MDR1/LLC-PK1)” value in data set [2] is 1.9.
With `C[C@H]1SC(N)=N[C@](C)(c2cc(NC(=O)c3ccc(OCF)cn3)ccc2F)[C@H]1F` [Compound I-51], the “ER ratio (Cell: MDR1/LLC-PK1)” value in data set [2] is 0.56.
`CC[C@H]1SC(N)=N[C@](C)(c2cc(NC(=O)c3cnc(OCF)cn3)ccc2F)[C@H]1F` [Compound I-66]: the “ER ratio (Cell: MDR1/LLC-PK1)” value in data set [2] is 0.6.
Regarding `C[C@]1(c2cc(NC(=O)c3ccc(C#N)cn3)ccc2F)N=C(N)O[C@H](CF)[C@@H]1OCC(F)(F)F` [Compound I-10], the IC50 in data set [3] and in data set [1] was no less than 20 µM in each case. This molecule yielded a BA_% in data set [4] of 46.3%. Also, the “ER ratio (Cell: MDR1/LLC-PK1)” value in data set [2] is 4.
On to `C[C@]1(c2cc(NC(=O)c3cnc(OCF)cn3)ccc2F)N=C(N)O[C@H](CF)[C@@H]1OCC(F)(F)F` [Compound I-12], for which the IC50 was no less than 20 µM in data set [3] and no less than 10 µM in data set [1]. In data set [4], this molecule returned a BA_% of 47.4%.
As to `COc1cnc(C(=O)Nc2ccc(F)c([C@@]3(C)N=C(N)S[C@H](C)[C@@H]3OC)c2)cn1` [Compound I-90], the IC50 in data set [3] and in data set [1] was no less than 20 µM in each case. Besides, the “ER ratio (Cell: MDR1/LLC-PK1)” value in data set [2] was determined as 3.1.
In turn, `COc1cnc(C(=O)Nc2ccc(F)c([C@@]3(C)N=C(N)O[C@H]([C@@H](C)F)[C@@H]3F)c2)cn1` [Compound I-71] gave an IC50 in data set [3] of no less than 20 µM. The “ER ratio (Cell: MDR1/LLC-PK1)” value in data set [2] is 0.92.
As for `Cc1cc(C#N)cnc1C(=O)Nc1ccc(F)c([C@@]2(C)N=C(N)S[C@H](C)[C@@H]2F)c1` [Compound I-52], in data set [1], the IC50 was no less than 20 µM. This molecule came in with a BA_% in data set [4] of 39.1%. Further, the “ER ratio (Cell: MDR1/LLC-PK1)” value in data set [2] came to 2.1.
In data set [3], `COc1cnc(C(=O)Nc2ccc(F)c([C@@]3(C)N=C(N)SCC34CC(F)(F)C4)c2)cn1` [Compound I-55] showed an IC50 of no less than 20 µM. Further, the “ER ratio (Cell: MDR1/LLC-PK1)” value in data set [2] is 0.9.
The corresponding values for `C[C@H]1SC(N)=N[C@](C)(c2cc(NC(=O)c3cnc(OCF)cn3)ccc2F)C12CC(F)(F)C2` [Compound I-62] are no less than 10 µM and 0.7.
The molecule `CO[C@H]1[C@@H](CF)OC(N)=N[C@]1(C)c1cc(NC(=O)c2cnc(OCF)cn2)ccc1Cl` [Compound I-19] gave an IC50 in data set [3] of no less than 20 µM. For the same molecule, the BA_% in data set [4] was found to be 39.1%.
Consider `C[C@H]1[C@@H](C(F)F)OC(N)=N[C@]1(C)c1cc(NC(=O)c2cnc(OCF)cn2)ccc1F` [Compound I-33], for which, in data set [3], the IC50 is no less than 20 µM. For the same molecule, in data set [2], the “ER ratio (Cell: MDR1/LLC-PK1)” value came to 3.2.
Consider `C[C@@H](F)[C@H]1OC(N)=N[C@](C)(c2cc(NC(=O)c3ccc(C#N)cn3)ccc2F)[C@H]1F` [Compound I-15], for which the IC50 in data set [3] and in data set [1] was no less than 20 µM throughout. The molecule further had a BA_% in data set [4] of 37.4%. For the same molecule, the “ER ratio (Cell: MDR1/LLC-PK1)” value in data set [2] came to 2.7.
In turn, `COc1ccc(C(=O)Nc2ccc(F)c([C@@]3(C)N=C(N)S[C@H](C)[C@@H]3F)c2)nn1` [Compound I-108] showed a half-inhibitory concentration (IC50) in data set [1] of no less than 10 µM. Also, in data set [2], the “ER ratio (Cell: MDR1/LLC-PK1)” value is listed as 1.4.
Consider `C[C@H]1[C@@H](C(F)F)OC(N)=N[C@]1(C)c1cc(NC(=O)c2ccc(C#N)cn2)ccc1F` [Compound I-31], for which the IC50 in data set [3] and in data set [1] was no less than 20 µM each time. The “ER ratio (Cell: MDR1/LLC-PK1)” value in data set [2] was 2.9.
As to `COCC(F)(F)[C@H]1OC(N)=N[C@](C)(c2cc(NC(=O)c3cnc(OCF)cn3)ccc2F)[C@H]1F` [Compound I-79], the IC50 in data set [3] was no less than 10 µM. For the same molecule, the “ER ratio (Cell: MDR1/LLC-PK1)” value in data set [2] was found to be 1.7.
For `C[C@]1(c2cc(NC(=O)c3cnc(OCF)cn3)ccc2F)N=C(N)S[C@H](CO)[C@@H]1F` [Compound I-109], in data set [2], the “ER ratio (Cell: MDR1/LLC-PK1)” value was 8.5.
For `CC(F)(F)[C@H]1OC(N)=N[C@](C)(c2cc(NC(=O)c3cnc(OCC(F)(F)F)cn3)ccc2F)[C@H]1F` [Compound I-75], in data set [3], the IC50 was no less than 10 µM. For the same molecule, in data set [2], the “ER ratio (Cell: MDR1/LLC-PK1)” value was 0.8.
As to `C[C@H](F)[C@H]1OC(N)=N[C@](C)(c2cc(NC(=O)c3ccc(C#N)cn3)ccc2F)[C@H]1F` [Compound I-13], the IC50 in data set [3] and in data set [1] was no less than 20 µM in each case. Moreover, the BA_% in data set [4] is recorded as 47.3%. For the same molecule, in data set [2], the “ER ratio (Cell: MDR1/LLC-PK1)” value came out at 2.4.
Turning to `COC[C@H]1SC(N)=N[C@](C)(c2cc(NC(=O)c3cnc(OCF)cn3)ccc2F)[C@H]1F` [Compound I-91], the “ER ratio (Cell: MDR1/LLC-PK1)” value in data set [2] is 1.5.
